Data on 25 compounds can be found in ChEMBL document CHEMBL1201862, “PubChem BioAssay data set” (2004).

Molecules are shown by their SMILES.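 96-well plates; 48 h exposure; 5 concentrations. Endpoints by linear interpolation between flanking doses. Not reached: highest tested concentration assigned. At the GI50, growth is halved.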 Activity calls are given as the source filed them. Rule as the data show it: active = GI50 up to about 1.1 µM and inactive = higher. Some results are limits rather than exact numbers.

Among the test systems are M19-MEL; DLD-1; DMS-114; XF498; KM-20L2; SNB-78; HOP-18; DMS-273; RXF 631.
What all share (assay): inhibition of tumour cell growth, NCI panel, 48 h

As for `COc1ccccc1NC(=O)C1=C(C)NC(C)=C(C(=O)Nc2ccccc2OC)C1c1ccc(N(C)C)cc1`, the GI50 with M19-MEL is 31.5 µM (inactive); in the assay with DLD-1, 17.9 µM (inactive); with DMS-114, 21.8 µM (inactive); with XF498 it was 12.1 µM (inactive); with KM-20L2, 23.7 µM (inactive); in the assay on SNB-78 it was 27.1 µM (inactive).
`COc1ccc(/C=C2\C(=O)NC(=O)c3ccccc32)cc1OC`: the GI50 is 41 µM (inactive) in the assay on M19-MEL; 4.81 µM (inactive) in the assay on DLD-1; > 100 µM (inactive) in the assay with HOP-18; 5 µM (inactive) in the assay with DMS-114; 6.71 µM (inactive) in the assay with XF498; 5.07 µM (inactive) with KM-20L2. Moreover, the GI50 is 6.58 µM (inactive) in the assay on SNB-78 and 21.4 µM (inactive) in the assay on DMS-273.
With `O=P(NCCCO)(OCc1ccccc1)N(CCCl)CCCl` (centres undefined), the GI50 was > 100 µM (inactive) in the assay on M19-MEL; > 31.6 µM (inactive) in the assay with DLD-1; > 39.5 µM (inactive) in the assay on HOP-18; > 100 µM (inactive) in the assay on XF498; > 100 µM (inactive) in the assay with KM-20L2; > 100 µM (inactive) with SNB-78. The GI50 with DMS-273 was > 100 µM (inactive).
As to `COC(=O)C(=Cc1cc(OC)c(OC)c(OC)c1-c1cc2c(cc1C(C)=O)OCO2)C(=O)OC`, the GI50 is 34.6 µM (inactive) in the assay on M19-MEL; 26.1 µM (inactive) in the assay on DLD-1; 52.6 µM (inactive) in the assay on HOP-18; 37.5 µM (inactive) in the assay with DMS-114; 27.4 µM (inactive) with XF498; 34.3 µM (inactive) with KM-20L2. Besides, the GI50 with DMS-273 is 30.7 µM (inactive).
Turning to `O=C1[C@H]2ON(c3ccccc3)C(c3ccc([N+](=O)[O-])cc3)[C@H]2C(=O)N1c1ccc(Cc2ccc(N3C(=O)[C@@H]4ON(c5ccccc5)C(c5ccc([N+](=O)[O-])cc5)[C@@H]4C3=O)cc2)cc1` (some centres undefined), the GI50 in the assay with M19-MEL, with DLD-1, in the assay with HOP-18, in the assay on DMS-114, with KM-20L2 and in the assay with RXF 631 was > 100 µM (inactive) throughout. Moreover, the GI50 in the assay on SNB-78 and with DMS-273 was > 100 µM (inactive) each time.
Consider `O=[N+]([O-])c1cccc2nc3ccccc3c(NCCO)c12`, for which the GI50 in the assay on M19-MEL is 0.0021 µM (active); in the assay on DLD-1, 0.000277 µM (active); in the assay with HOP-18, 0.0056 µM (active); in the assay on DMS-114, 0.00316 µM (active); in the assay with XF498, 0.00135 µM (active); with KM-20L2 it was 0.000121 µM (active). For the same compound, the figures for the GI50 in the assay with SNB-78 and with DMS-273 were 0.00533 µM (active) and 0.00918 µM (active), respectively.
In the case of `O=C(C(O)c1cn(Cc2ccccc2)c2ccccc12)N1CCCCC1` (centres undefined), the GI50 in the assay on M19-MEL is > 100 µM (inactive); in the assay on DLD-1, > 100 µM (inactive); in the assay with HOP-18, 24.1 µM (inactive); with DMS-114, > 100 µM (inactive); in the assay with XF498, 93.1 µM (inactive); in the assay on KM-20L2, 38.8 µM (inactive). Besides, the figures for the GI50 in the assay on SNB-78 and with DMS-273 were > 10 µM (inactive) and > 100 µM (inactive), respectively.
In the case of `CC(=O)NNc1nc(C)c(C(=O)NNC(=O)C(=O)Nc2c(C)cccc2C(C)C)s1`, the GI50 is > 100 µM (inactive) with M19-MEL; 86.7 µM (inactive) in the assay on DMS-114; > 100 µM (inactive) in the assay on XF498; > 100 µM (inactive) with KM-20L2; 27.9 µM (inactive) with SNB-78; > 100 µM (inactive) in the assay on DMS-273.
Turning to `NC(=O)N/N=C/C(/C=N/NC(N)=O)[N+](=O)[O-]`, the GI50 in the assay on M19-MEL, with DLD-1, with DMS-114, with XF498, in the assay with KM-20L2 and in the assay on RXF 631 was > 100 µM (inactive) throughout.
With `CC1(c2ccc[n+](Cc3ccccc3)c2)OCCO1`, the GI50 with M19-MEL, in the assay with DLD-1, in the assay with HOP-18, in the assay on KM-20L2, in the assay with SNB-78 and in the assay with DMS-273 was > 100 µM (inactive) in each case.
On to `Cc1ccccc1NC(=O)c1c(C)oc2c1C(=O)c1ccccc1C2=O`, for which the GI50 is 8.63 µM (inactive) in the assay with M19-MEL; 33 µM (inactive) in the assay with DLD-1; 24.7 µM (inactive) with DMS-114; 32.2 µM (inactive) with XF498; 65.5 µM (inactive) in the assay with KM-20L2; 1.86 µM (inactive) in the assay with SNB-78. The GI50 in the assay with DMS-273 was 42 µM (inactive).
As for `COC(=O)C1=CO[C@@H](OC2CC(CO)C(O)C(O)C2O)[C@@H]2[C@@H](C)[C@@H](OC(=O)/C=C/c3ccccc3)[C@@H](O)[C@H]12.COC(=O)C1=CO[C@@H](OC2CC(CO)C(O)C(O)C2O)[C@@H]2[C@@H](C)[C@@H](OC(=O)c3ccccc3)[C@@H](O)[C@H]12` (some centres undefined), the GI50 in the assay with M19-MEL, in the assay on DLD-1, in the assay with HOP-18, with DMS-114, with XF498 and in the assay on KM-20L2 was > 100 µM (inactive) in each case.
As for `CCNCC(=O)O[C@]1(CC)C(=O)OCc2c1cc1n(c2=O)Cc2cc3ccccc3nc2-1`, the GI50 was 0.394 µM (active) in the assay with M19-MEL; 2.37 µM (inactive) with DLD-1; 0.44 µM (active) in the assay on HOP-18; 0.0857 µM (active) with DMS-114; 0.364 µM (active) in the assay on XF498; 1.14 µM (inactive) with KM-20L2. Moreover, the GI50 is 5.11 µM (inactive) with SNB-78 and 0.0119 µM (active) in the assay on DMS-273.
Take `O=C1/C(=C/c2cccc([N+](=O)[O-])c2)COc2ccc(Br)cc21`: the GI50 in the assay on M19-MEL was > 100 µM (inactive); in the assay on DLD-1, > 100 µM (inactive); with HOP-18 it was > 100 µM (inactive); in the assay with DMS-114, 65.9 µM (inactive); in the assay with XF498, > 100 µM (inactive); in the assay with KM-20L2, > 100 µM (inactive). Moreover, the GI50 was > 100 µM (inactive) in the assay on SNB-78 and 45.2 µM (inactive) in the assay on DMS-273.
For `O=C(Cc1cc[n+]([O-])cc1)C(=O)Nc1cc(Cl)c(Cl)cc1Cl`, the GI50 in the assay with M19-MEL, with DLD-1, in the assay on DMS-114, in the assay on KM-20L2, with RXF 631 and in the assay with SNB-78 was > 100 µM (inactive) each time.
As for `O=C1C=C(Nc2ccc(S(=O)(=O)Nc3ncccn3)cc2)c2ccccc2C1=O`, the GI50 was 15.5 µM (inactive) with M19-MEL; 20.7 µM (inactive) in the assay with DLD-1; 26.3 µM (inactive) in the assay with HOP-18; 28.7 µM (inactive) in the assay with KM-20L2; 22.3 µM (inactive) with RXF 631; 28.8 µM (inactive) in the assay with SNB-78. Moreover, the GI50 with DMS-273 is 27.7 µM (inactive).
On to `O=C(Nc1cccs1)c1c(O)[nH]c(=S)[nH]c1=O`, for which the GI50 with DLD-1, with HOP-18, with DMS-114, in the assay with KM-20L2 and in the assay with RXF 631 was > 100 µM (inactive) throughout.
As for `CCOC(=O)c1ccn2c(c1)c(C#N)c1nc3ccccc3nc12`, the GI50 was 61.8 µM (inactive) with M19-MEL; 27.4 µM (inactive) in the assay on DLD-1; 52.2 µM (inactive) in the assay on DMS-114; 33.7 µM (inactive) in the assay on XF498; 71.9 µM (inactive) in the assay with KM-20L2; 15.5 µM (inactive) with SNB-78. The GI50 in the assay on DMS-273 is 37.2 µM (inactive).
For the compound `O=C1NC(=S)NC(=O)C1=CC1CC1`, the GI50 in the assay with M19-MEL, in the assay with DLD-1, in the assay with HOP-18, in the assay with DMS-114, in the assay on XF498 and in the assay with KM-20L2 was > 100 µM (inactive) throughout. The GI50 in the assay with SNB-78 and with DMS-273 was > 100 µM (inactive) in each case.
`CCOC(=O)C1=C(OC(OCC)C(C)[Se]c2ccccc2)CCC1` (centres undefined): the GI50 in the assay with M19-MEL was 15.8 µM (inactive); with DLD-1 it was 19.3 µM (inactive); in the assay with HOP-18, 20.8 µM (inactive); with XF498, 16.1 µM (inactive); in the assay on KM-20L2, 29.2 µM (inactive); in the assay with SNB-78 it was 97.1 µM (inactive). Further, the GI50 with DMS-273 was 10.3 µM (inactive).
In the case of `Cc1ccc(C(=O)C(C)N)cc1C` (centres undefined), the GI50 in the assay with M19-MEL was > 100 µM (inactive); in the assay with DLD-1, > 100 µM (inactive); in the assay on DMS-114 it was > 100 µM (inactive); in the assay with XF498, 41.5 µM (inactive); in the assay on KM-20L2, > 100 µM (inactive); with RXF 631 it was > 100 µM (inactive).
Regarding `CC(=O)OC1CC2C(C)(C)C(=O)C=C[C@]2(C)C2CCC3(C)C(=CC(=O)C3c3ccoc3)[C@]12C` (some centres undefined), the GI50 was 16 µM (inactive) in the assay with M19-MEL; 12.4 µM (inactive) with DLD-1; 18.4 µM (inactive) in the assay with HOP-18; 10 µM (inactive) in the assay with DMS-114; 25.8 µM (inactive) in the assay on XF498; 14.7 µM (inactive) with KM-20L2. Moreover, the GI50 in the assay on SNB-78 is 31.4 µM (inactive).
`COCC1N=C(c2cc(OC)c(OC)c(OC)c2-c2cc3c(cc2[C@H](C)O)OCO3)O[C@H]1c1ccccc1` (some centres undefined): the GI50 in the assay with M19-MEL was 37.1 µM (inactive); with DLD-1 it was 83.6 µM (inactive); in the assay with HOP-18 it was 88.9 µM (inactive); in the assay with KM-20L2, > 100 µM (inactive); with RXF 631, > 100 µM (inactive); with SNB-78, 61 µM (inactive). In addition, in the assay on DMS-273, the GI50 was 37.2 µM (inactive).
`c1cc2c3c(c1)c1cc4c(cc1c[n+]3CC2)OCO4` [ANHYDROLYCORINIUM CHLORIDE]: the GI50 was 1.33 µM (inactive) in the assay on M19-MEL; 8.83 µM (inactive) in the assay on DLD-1; 9.79 µM (inactive) in the assay on HOP-18; 2.45 µM (inactive) in the assay with DMS-114; 4.14 µM (inactive) in the assay on XF498; 3.56 µM (inactive) in the assay on KM-20L2. Further, the results for the GI50 with SNB-78 and with DMS-273 were 4.06 µM (inactive) and 4.42 µM (inactive), respectively.
On to `C[C@]12CCC(=O)C=C1CC[C@@H]1[C@@H]2[C@@H](O)C[C@@]2(C)[C@H]1CC[C@]2(O)C(=O)COC(=O)CCC1CCCC1` [HYDROCORTISONE CYPIONATE], for which the GI50 in the assay on M19-MEL, with DLD-1, in the assay with DMS-114, in the assay on XF498, in the assay with KM-20L2 and with SNB-78 was > 100 µM (inactive) in each case. For the same compound, in the assay on DMS-273, the GI50 is 61.1 µM (inactive).
